Assay results as given in patent publication US20120171123A1, “USES AND COMPOSITIONS FOR TREATMENT OF RHEUMATOID ARTHRITIS” (priority 2006, published 2012).

Legend:
[1] = test system: patients with moderate to severe rheumatoid arthritis; assay: Study C: HAQ; format: in vivo, human
Protocol: The Canadian Adalimumab Clinical Trial (Study C) was an open-label, multi-center, Phase IIIb study conducted in Canada. […] Efficacy and safety were assessed at baseline, 4, 8, and 12 weeks. Efficacy assessments included tender joint count (TJC 0-28), swollen joint count (SJC 0-28), Disease Activity Score 28 (DAS28), Health Assessment Questionnaire (HAQ), and EULAR response. This was a preliminary analysis of 236 patients. The sample size for each outcome variable is based on the data available at the time of the analysis. The data from this preliminary analysis were compared with the Week 12 data from Study A (N=2008).

[2] = test system: patients with active rheumatoid arthritis; assay: Study A: tender and swollen joint count (TJC28/SJC28); format: in vivo, human; settings: for Change in SJC, mean change from baseline / Change in TJC, mean change from baseline / SJC = 0 / TJC = 0: 12 weeks
Protocol: Swollen and tender joints are the most characteristic features of RA, as disease severity is directly related to the number of swollen and tender joints. Counting swollen and tender joints is a key component of the clinical assessment of RA. Tender joint count (TJC) is an assessment of 28 or more joints where several different aspects of tenderness are assessed by pressure and joint manipulation on physical examination. Swollen joint count (SJC): an assessment of 28 or more joints where joints are classified as either swollen or not swollen. For TJC and SJC scoring see Fuchs and Pincus, Arthritis Rheum 37:470-475, 1994; Arthritis Rheum 37:463-464, 1994).
The study design included a 12 week open label treatment period followed by a continuation period examining safety and efficacy. […] The main inclusion criteria for the study were the following: males and females ≧18 years; rheumatoid arthritis (RA; defined by ACR criteria) for ≧3 months; unsatisfactory response (or intolerance) to at least one prior DMARD; and patients with active RA (DAS28≧3.2). Baseline demographics and disease severity is shown below in Table 1:
Efficacy of adalimumab treatment was determined by examining signs and symptoms of the patients. Various assays were used to determine efficacy, including ACR response, EULAR response, TJC and SJC count, and DAS28.
The objective of this study was to evaluate the impact of prior biologic therapies, in particular TNF-antagonists etanercept (ETA) and infliximab (INF), on key efficacy parameters of adalimumab therapy in patients with long-standing RA in clinical practice. To evaluate the impact of prior biological therapies, patients with moderate to severe RA enrolled at 450 sites in 11 European countries plus Australia (Study A). Patients with moderate to severe RA and an inadequate response to prior DMARD therapies were enrolled in a 12-week open-label study with an optional extension phase. […] Patients with previous biologic treatment must have received the last administration at least 8 weeks before enrollment Routine safety and efficacy data were collected at weeks 2, 6, and 12, and every 8 weeks in the extension phase. Efficacy parameters included ACR20, ACR50, ACR70, EULAR Response, HAQ, tender and swollen joint count (TJC28/SJC28), and DAS28. […] For this interim analysis, efficacy outcomes were evaluated after 12 weeks of therapy per the number and type of prior biologics used: None, any (ETA, INF, anakinra), ETA only, INF only, or ETA and INF but not anakinra.
Patients with long-standing, moderate to severe RA were enrolled in Study A at 450 sites in 12 different countries. The study design for Study A is outlined in FIG. 21. […] Previous treatment with other biologics was allowed up to 8 weeks before enrollment. Patients met the following inclusion criteria: Age ≧18 years; RA (defined by American College of Rheumatology criteria) for ≧3 months; active, moderate to severe RA (Disease Activity Score (DAS28)≧3.2); unsatisfactory response or intolerance to at least one prior DMARD, including biologics. Efficacy assessments were performed at weeks 0 (baseline), 2, 6, and 12. The key outcomes measured were: change in DAS28; EULAR responses; ACR20, ACR50, ACR70 responses; changes in Tender Joint Count (TJC) and Swollen Joint Count (SJC); and change in Health Assessment Questionnaire (HAQ).

[3] = prior biologic: ETA + INF (n=78)
[4] = Week 12, concomitant LEF only (n=557)
[5] = Week 12, concomitant MTX + LEF (n=123)
[6] = Week 12, concomitant MTX only (n=1561)
[7] = Week 12, concomitant QC/HQC (n=85)
[8] = Week 12, concomitant SSZ only (n=89)
[9] = Wk 12, concomitant MTX Im 15 mg (N=76), no other DMARD
[10] = Wk 12, concomitant MTX Iv 15 mg (N=23), no other DMARD
[11] = Wk 12, concomitant MTX Sc 15 mg (N=37), no other DMARD
[12] = Wk 12, concomitant MTX oral 15 mg (N=405), no other DMARD
[13] = Wk 12, concomitant MTX oral ≦7.5 (N=127), no other DMARD
[14] = Wk 12, concomitant MTX oral ≧20 mg (N=216), no other DMARD
[15] = week 12, prior biologic: ETA + INF

For “adalimumab: human anti-TNF mAb (HUMIRA, Abbott Laboratories), described in U.S. Pat. No. 6,090,382 as D2E7”, the “improvement in HAQ score” value ([1]; 12 weeks) was −0.55, the “patients achieving HAQ<0.5” value ([1]; 12 weeks) was 28% and the “HAQ (mean), change from baseline” value ([1]; Study C, 12 weeks, preliminary analysis) was −0.55 (122). For the same substance, the “mean HAQ” value ([1]; week 12 (baseline 1.4)) was 0.86, the “Change in SJC, mean change from baseline” value ([2]; all pts in Study A (n=4241)) was −6 and the “Change in TJC, mean change from baseline” value ([2]; all pts in Study A (n=4241)) was −8. For the same substance, the “SJC = 0” value ([2]; all pts in Study A (n=4241)) was 24%, the “TJC = 0” value ([2]; all pts in Study A (n=4241)) was 21% and the “Change in SJC, mean change from baseline” value ([2]; prior biologic: Any (n=688)) was −6. The “Change in TJC, mean change from baseline” value ([2]; prior biologic: Any (n=688)) was −8, the “SJC = 0” value ([2]; prior biologic: Any (n=688)) was 18% and the “TJC = 0” value ([2]; prior biologic: Any (n=688)) was 16%. The “Change in SJC, mean change from baseline” value ([2]; prior biologic: ETA (n=114)) was −7, the “Change in TJC, mean change from baseline” value ([2]; prior biologic: ETA (n=114)) was −8 and the “SJC = 0” value ([2]; prior biologic: ETA (n=114)) was 21%. The “TJC = 0” value ([2]; prior biologic: ETA (n=114)) was 16%, the “Change in SJC, mean change from baseline” value [2, 3] was −5 and the “Change in TJC, mean change from baseline” value [2, 3] was −7. The “SJC = 0” value [2, 3] was 7%, the “TJC = 0” value [2, 3] was 10% and the “Change in SJC, mean change from baseline” value ([2]; prior biologic: INF (n=358)) was −6. The “Change in TJC, mean change from baseline” value ([2]; prior biologic: INF (n=358)) was −8, the “SJC = 0” value ([2]; prior biologic: INF (n=358)) was 22% and the “TJC = 0” value ([2]; prior biologic: INF (n=358)) was 17%. The “Change in SJC, mean change from baseline” value ([2]; prior biologic: None (n=3553)) was −7, the “Change in TJC, mean change from baseline” value ([2]; prior biologic: None (n=3553)) was −8 and the “SJC = 0” value ([2]; prior biologic: None (n=3553)) was 25%. The “TJC = 0” value ([2]; prior biologic: None (n=3553)) was 22%, the “Change in SJC (0-28), mean change from baseline” value [2, 4] was −6 and the “Change in TJC (0-28), mean change from baseline” value [2, 4] was −8. The “Change in SJC (0-28), mean change from baseline” value [2, 5] was −8, the “Change in TJC (0-28), mean change from baseline” value [2, 5] was −10 and the “Change in SJC (0-28), mean change from baseline” value ([2]; Week 12, concomitant MTX + SSZ) was −7. The “Change in TJC (0-28), mean change from baseline” value ([2]; Week 12, concomitant MTX + SSZ) was −8, the “Change in SJC (0-28), mean change from baseline” value [2, 6] was −7 and the “Change in TJC (0-28), mean change from baseline” value [2, 6] was −8. The “Change in SJC (0-28), mean change from baseline” value [2, 7] was −7, the “Change in TJC (0-28), mean change from baseline” value [2, 7] was −9 and the “Change in SJC (0-28), mean change from baseline” value [2, 8] was −6. For the same substance, the “Change in TJC (0-28), mean change from baseline” value [2, 8] was −7, the “Change in SJC (0-28), mean change from baseline” value [2, 9] was −6 and the “Change in TJC (0-28), mean change from baseline” value [2, 9] was −8. For the same substance, the “Change in SJC (0-28), mean change from baseline” value [2, 10] was −7, the “Change in TJC (0-28), mean change from baseline” value [2, 10] was −11 and the “Change in SJC (0-28), mean change from baseline” value [2, 11] was −7. The “Change in TJC (0-28), mean change from baseline” value [2, 11] was −10, the “Change in SJC (0-28), mean change from baseline” value [2, 12] was −6 and the “Change in TJC (0-28), mean change from baseline” value [2, 12] was −8. The “Change in SJC (0-28), mean change from baseline” value [2, 13] was −7, the “Change in TJC (0-28), mean change from baseline” value [2, 13] was −8 and the “Change in SJC (0-28), mean change from baseline” value [2, 14] was −7. For the same substance, the “Change in TJC (0-28), mean change from baseline” value [2, 14] was −9, the “patients achieving SJC=0” value ([2]; week 12) was 25% and the “patients achieving TJC=0” value ([2]; week 12) was 23%. The “SJC (0-28) mean change from baseline” value ([2]; week 12, 1 prior biologic) was −6.4, the “TJC (0-28) mean change from baseline” value ([2]; week 12, 1 prior biologic) was −8.0 and the “SJC (0-28) mean change from baseline” value ([2]; week 12, 2 prior biologics) was −6.9. For the same substance, the “TJC (0-28) mean change from baseline” value ([2]; week 12, 2 prior biologics) was −8.1, the “SJC (0-28) mean change from baseline” value ([2]; week 12, 3 prior biologics) was −6.6 and the “TJC (0-28) mean change from baseline” value ([2]; week 12, 3 prior biologics) was −11.3. The “reduction in SJC28” value ([2]; week 12, median) was about 70%, the “reduction in TJC28” value ([2]; week 12, median) was about 77% and the “SJC (0-28) mean change from baseline” value ([2]; week 12, no prior biologic) was −6.4. The “TJC (0-28) mean change from baseline” value ([2]; week 12, no prior biologic) was −8.1, the “SJC (0-28) mean change from baseline” value ([2]; week 12, prior etanercept only) was −6.6 and the “TJC (0-28) mean change from baseline” value ([2]; week 12, prior etanercept only) was −8.4. For the same substance, the “SJC (0-28) mean change from baseline” value ([2]; week 12, prior infliximab only) was −6.8, the “TJC (0-28) mean change from baseline” value ([2]; week 12, prior infliximab only) was −7.8 and the “Median TJC reduction” value ([2]; week 12, prior biologic: Any) was −8. For the same substance, the “Mediant SJC reduction” value ([2]; week 12, prior biologic: Any) was −6, the “Median TJC reduction” value ([2]; week 12, prior biologic: ETA) was −8 and the “Mediant SJC reduction” value ([2]; week 12, prior biologic: ETA) was −7. For the same substance, the “Median TJC reduction” value [2, 15] was −7, the “Mediant SJC reduction” value [2, 15] was −5 and the “Median TJC reduction” value ([2]; week 12, prior biologic: INF) was −8. The “Mediant SJC reduction” value ([2]; week 12, prior biologic: INF) was −6, the “Median TJC reduction” value ([2]; week 12, prior biologic: None) was −8 and the “Mediant SJC reduction” value ([2]; week 12, prior biologic: None) was −7.
